The values that follow come from publication PMC5218480 (PLoS ONE, 2017).

The subject of the assay is MV-4-11 cells. Kind of assay: Gene expression microarray analysis (Affymetrix PrimeView) and GSEA. It is filed as cell-based, human. More on the design: RFU PODN (11730768_x_at) / Fold change /veh PODN (11730768_x_at) / RFU LINC00158 (11744669_a_at) / Fold change /veh LINC00158 (11744669_a_at) / RFU DUSP10 (11751237_a_at) / Fold change /veh DUSP10 (11751237_a_at) / RFU ID3 (11757404_x_at) / Fold change /veh ID3 (11757404_x_at) / RFU PLEKHG5 (11737974_s_at) / Fold change /veh PLEKHG5 (11737974_s_at) / RFU LRRC4B (11730491_at) / Fold change /veh LRRC4B (11730491_at) / RFU GIMAP4 (11747438_a_at) / Fold change /veh GIMAP4 (11747438_a_at) / RFU KRT8 (11758183_x_at) / Fold change /veh KRT8 (11758183_x_at) / RFU CNN1 (11734310_a_at) / Fold change /veh CNN1 (11734310_a_at) / RFU VPS37D (11726825_at) / Fold change /veh VPS37D (11726825_at) / RFU C10orf10 (11716522_x_at) / Fold change /veh C10orf10 (11716522_x_at) / RFU KIR2DL2 /// KIR2DL4 /// KIR2DL5A /// KIR2DL5B /// KIR2DS1 /// KIR2DS2 /// KIR2DS3 /// KIR2DS4 /// KIR3DL3 /// KIR3DL3 /// KIR3DS1 (11738374_at) / Fold change /veh KIR2DL2 /// KIR2DL4 /// KIR2DL5A /// KIR2DL5B /// KIR2DS1 /// KIR2DS2 /// KIR2DS3 /// KIR2DS4 /// KIR3DL3 /// KIR3DL3 /// KIR3DS1 (11738374_at) / RFU C1QL1 (11718748_at) / Fold change /veh C1QL1 (11718748_at) / RFU TMPRSS4 (11747572_a_at) / Fold change /veh TMPRSS4 (11747572_a_at) / RFU HAMP (11756126_x_at) / Fold change /veh HAMP (11756126_x_at) / RFU RNFT2 (11725882_a_at) / Fold change /veh RNFT2 (11725882_a_at) / RFU NR4A2 (11747474_a_at) / Fold change /veh NR4A2 (11747474_a_at) / RFU ABCC12 (11746883_a_at) / Fold change /veh ABCC12 (11746883_a_at) / RFU TMEM136 (11760407_x_at) / Fold change /veh TMEM136 (11760407_x_at) / RFU CLDN22 /// WWC2 (11732394_at) / Fold change /veh CLDN22 /// WWC2 (11732394_at) / RFU HLA-DPB1 (11760878_x_at) / Fold change /veh HLA-DPB1 (11760878_x_at) / RFU SPINT1 (11716480_a_at) / Fold change /veh SPINT1 (11716480_a_at) / RFU GAP43 (11754022_s_at) / Fold change /veh GAP43 (11754022_s_at) / RFU A4GNT (11735810_at) / Fold change /veh A4GNT (11735810_at) / RFU PRB3 (11715151_x_at) / Fold change /veh PRB3 (11715151_x_at) / RFU TUBB4B (11761932_at) / Fold change /veh TUBB4B (11761932_at) / RFU CAPN14 (11732068_a_at) / Fold change /veh CAPN14 (11732068_a_at) / RFU TMCC2 (11721928_a_at) / Fold change /veh TMCC2 (11721928_a_at) / RFU IRGQ (11745062_a_at) / Fold change /veh IRGQ (11745062_a_at) / RFU FAM174B (11720279_a_at) / Fold change /veh FAM174B (11720279_a_at) / RFU TMPRSS4 (11748680_a_at) / Fold change /veh TMPRSS4 (11748680_a_at) / RFU FAM212B (11763350_a_at) / Fold change /veh FAM212B (11763350_a_at) / RFU PLEKHG5 (11743358_a_at) / Fold change /veh PLEKHG5 (11743358_a_at) / RFU ZSCAN30 (11745921_a_at) / Fold change /veh ZSCAN30 (11745921_a_at) / RFU CMKLR1 (11741424_a_at) / Fold change /veh CMKLR1 (11741424_a_at) / RFU LOC101060620 /// MAPK8IP1 (11723275_at) / Fold change /veh LOC101060620 /// MAPK8IP1 (11723275_at) / RFU SPTSSB (11747773_x_at) / Fold change /veh SPTSSB (11747773_x_at) / RFU PRSS12 (11739890_at) / Fold change /veh PRSS12 (11739890_at) / RFU BIN1 (11741810_x_at) / Fold change /veh BIN1 (11741810_x_at) / RFU WNT11 (11732464_a_at) / Fold change /veh WNT11 (11732464_a_at) / RFU C10orf10 (11716521_a_at) / Fold change /veh C10orf10 (11716521_a_at) / RFU C5orf56 (11738089_at) / Fold change /veh C5orf56 (11738089_at) / RFU CYB561 (11721691_x_at) / Fold change /veh CYB561 (11721691_x_at) / RFU ANKRD19P (11752326_a_at) / Fold change /veh ANKRD19P (11752326_a_at) / RFU OR2T12 /// OR2T33 /// OR2T8 (11738714_s_at) / Fold change /veh OR2T12 /// OR2T33 /// OR2T8 (11738714_s_at) / RFU VCAN (11748164_a_at) / Fold change /veh VCAN (11748164_a_at) / RFU JSRP1 (11732532_at) / Fold change /veh JSRP1 (11732532_at) / RFU KRTAP10-11 (11738290_x_at) / Fold change /veh KRTAP10-11 (11738290_x_at) / RFU MYO3A (11730013_a_at) / Fold change /veh MYO3A (11730013_a_at) / RFU EBF3 (11725865_a_at) / Fold change /veh EBF3 (11725865_a_at) / RFU CAMK2N1 (11719241_x_at) / Fold change /veh CAMK2N1 (11719241_x_at) / RFU C5orf56 (11738088_a_at) / Fold change /veh C5orf56 (11738088_a_at) / RFU OLFML3 (11715873_a_at) / Fold change /veh OLFML3 (11715873_a_at) / RFU LOC100653217 /// NTM (11731650_a_at) / Fold change /veh LOC100653217 /// NTM (11731650_a_at) / RFU MAPK11 (11762145_a_at) / Fold change /veh MAPK11 (11762145_a_at) / RFU FIZ1 (11724087_x_at) / Fold change /veh FIZ1 (11724087_x_at) / RFU OASL (11726364_x_at) / Fold change /veh OASL (11726364_x_at) / RFU SOX15 (11748057_x_at) / Fold change /veh SOX15 (11748057_x_at) / RFU CD79A (11719716_a_at) / Fold change /veh CD79A (11719716_a_at) / RFU HIST1H1D (11736915_at) / Fold change /veh HIST1H1D (11736915_at) / RFU CASKIN2 (11723855_a_at) / Fold change /veh CASKIN2 (11723855_a_at) / RFU LOC730098 (11760151_x_at) / Fold change /veh LOC730098 (11760151_x_at) / RFU OR4N2 (11742367_at) / Fold change /veh OR4N2 (11742367_at) / RFU PRRT2 (11749266_a_at) / Fold change /veh PRRT2 (11749266_a_at) / RFU SNX32 (11753110_a_at) / Fold change /veh SNX32 (11753110_a_at) / RFU CDHR5 (11726645_a_at) / Fold change /veh CDHR5 (11726645_a_at) / RFU RCAN1 (11760418_a_at) / Fold change /veh RCAN1 (11760418_a_at) / RFU FAM167A (11723789_a_at) / Fold change /veh FAM167A (11723789_a_at) / RFU FAM26E (11764081_at) / Fold change /veh FAM26E (11764081_at) / RFU ISYNA1 (11749810_s_at) / Fold change /veh ISYNA1 (11749810_s_at) / RFU ACY1 (11761880_at) / Fold change /veh ACY1 (11761880_at) / RFU 11764098_at / Fold change /veh 11764098_at / RFU SAMD14 (11745864_x_at) / Fold change /veh SAMD14 (11745864_x_at) / RFU NPB (11741838_a_at) / Fold change /veh NPB (11741838_a_at) / RFU TMPRSS6 (11731388_a_at) / Fold change /veh TMPRSS6 (11731388_a_at) / RFU KRTAP10-2 (11738614_at) / Fold change /veh KRTAP10-2 (11738614_at) / RFU ARHGAP8 /// PRR5-ARHGAP8 (11727945_x_at) / Fold change /veh ARHGAP8 /// PRR5-ARHGAP8 (11727945_x_at) / RFU KRTAP5-7 /// NADSYN1 (11734609_at) / Fold change /veh KRTAP5-7 /// NADSYN1 (11734609_at) / RFU RASL12 (11751679_a_at) / Fold change /veh RASL12 (11751679_a_at) / RFU CDKN2B (11736163_a_at) / Fold change /veh CDKN2B (11736163_a_at) / RFU PRF1 (11729649_at) / Fold change /veh PRF1 (11729649_at) / RFU, ZNF638 /// ZNF638-IT1 / Fold change vs veh, ZNF638 /// ZNF638-IT1 / RFU, PANK3 / Fold change vs veh, PANK3 / RFU, SH3YL1 / Fold change vs veh, SH3YL1 / RFU, ZEB2 / Fold change vs veh, ZEB2 / RFU, NRIP1 / Fold change vs veh, NRIP1 / RFU, PTTG1IP / Fold change vs veh, PTTG1IP / RFU, CAPN2 / Fold change vs veh, CAPN2 / RFU, MED14 / Fold change vs veh, MED14 / RFU, SNORA58 / Fold change vs veh, SNORA58 / RFU, C1orf63 / Fold change vs veh, C1orf63 / RFU, LRRFIP1 / Fold change vs veh, LRRFIP1 / RFU, NDUFAF7 / Fold change vs veh, NDUFAF7 / RFU, SLC12A2 / Fold change vs veh, SLC12A2 / RFU, IBTK / Fold change vs veh, IBTK / RFU, ESF1 / Fold change vs veh, ESF1 / Fold change vs veh, TMEM50B / RFU, TAOK1 / Fold change vs veh, TAOK1 / RFU, ACBD3 / Fold change vs veh, ACBD3 / RFU, TMA16 / Fold change vs veh, TMA16 / RFU, RWDD3 / Fold change vs veh, RWDD3 / RFU, BCAT1 / Fold change vs veh, BCAT1 / RFU, EDEM3 / Fold change vs veh, EDEM3 / RFU, TMEM33 / Fold change vs veh, TMEM33 / RFU, WDR75 / Fold change vs veh, WDR75 / RFU, AHCTF1 / Fold change vs veh, AHCTF1 / RFU, TFRC / Fold change vs veh, TFRC / RFU, ZDHHC17 / Fold change vs veh, ZDHHC17 / RFU, NOM1 / Fold change vs veh, NOM1 / RFU, ARL8B / Fold change vs veh, ARL8B / RFU, ZBTB11 / Fold change vs veh, ZBTB11 / RFU, TAMM41 / Fold change vs veh, TAMM41 / RFU, KIAA1704 /// LOC100996395 / Fold change vs veh, KIAA1704 /// LOC100996395 / RFU, ING1 / Fold change vs veh, ING1 / RFU, TRMT61B / Fold change vs veh, TRMT61B / RFU, FUBP3 / Fold change vs veh, FUBP3 / RFU, TP53 / Fold change vs veh, TP53 / RFU, TNKS2 / Fold change vs veh, TNKS2 / RFU, ZFP14 / Fold change vs veh, ZFP14 / RFU, ACTR2 / Fold change vs veh, ACTR2 / RFU, PPP3R1 / Fold change vs veh, PPP3R1 / RFU, PIK3R1 / Fold change vs veh, PIK3R1 / RFU, HNRNPA1 / Fold change vs veh, HNRNPA1 / RFU, RNF170 / Fold change vs veh, RNF170 / RFU, ZNF28 / Fold change vs veh, ZNF28 / RFU, RNGTT / Fold change vs veh, RNGTT / RFU, OGT / Fold change vs veh, OGT / RFU, BRD1 / Fold change vs veh, BRD1 / RFU, MARS / Fold change vs veh, MARS / RFU, ZNF655 / Fold change vs veh, ZNF655 / RFU, FAHD1 / Fold change vs veh, FAHD1 / RFU, BDP1 / Fold change vs veh, BDP1 / RFU, LRRCC1 / Fold change vs veh, LRRCC1 / RFU, ARID1A / Fold change vs veh, ARID1A / RFU, ZNF146 / Fold change vs veh, ZNF146 / RFU, ZNF330 / Fold change vs veh, ZNF330 / RFU, GPN3 / Fold change vs veh, GPN3 / RFU, C9orf123 / Fold change vs veh, C9orf123 / RFU, N4BP2L2 / Fold change vs veh, N4BP2L2 / RFU, ARFIP1 / Fold change vs veh, ARFIP1 / RFU, FAM179B / Fold change vs veh, FAM179B / RFU, BCL10 / Fold change vs veh, BCL10 / RFU, UHRF1BP1L / Fold change vs veh, UHRF1BP1L / RFU, BET1 / Fold change vs veh, BET1 / RFU, CNOT2 / Fold change vs veh, CNOT2 / RFU, ZNF268 / Fold change vs veh, ZNF268 / Fold change vs veh, ZNF507 / RFU, DGCR2 / Fold change vs veh, DGCR2 / RFU, WDSUB1 / Fold change vs veh, WDSUB1 / Fold change vs veh, HSP90B1 /// MIR3652 / RFU, ADSS / Fold change vs veh, ADSS / RFU, GK / Fold change vs veh, GK / RFU, ZNF148 / Fold change vs veh, ZNF148 / RFU, TAF9 / Fold change vs veh, TAF9 / RFU, SLC1A5 / Fold change vs veh, SLC1A5 / RFU, SLMO2 / Fold change vs veh, SLMO2 / RFU, ABCC4 / Fold change vs veh, ABCC4 / RFU, LOC101060439 /// RAP1B / Fold change vs veh, LOC101060439 /// RAP1B / RFU, RFX7 / Fold change vs veh, RFX7 / RFU, GTPBP10 / Fold change vs veh, GTPBP10 / RFU, CNEP1R1 / Fold change vs veh, CNEP1R1 / RFU, BIVM-ERCC5 /// ERCC5 / Fold change vs veh, BIVM-ERCC5 /// ERCC5 / RFU, ILF3 / Fold change vs veh, ILF3 / RFU 11762660_at / Fold change /veh 11762660_at / RFU VCAN (11757783_s_at) / Fold change /veh VCAN (11757783_s_at) / RFU DDX43 (11728927_at) / Fold change /veh DDX43 (11728927_at) / RFU KRT8 (11758188_x_at) / Fold change /veh KRT8 (11758188_x_at) / RFU NKD1 (11759106_at) / Fold change /veh NKD1 (11759106_at) / RFU SRD5A1 (11742802_a_at) / Fold change /veh SRD5A1 (11742802_a_at) / RFU TPSAB1 /// TPSB2 (11721975_s_at) / Fold change /veh TPSAB1 /// TPSB2 (11721975_s_at) / RFU GSTM3 (11746129_a_at) / Fold change /veh GSTM3 (11746129_a_at) / RFU IL23R (11737362_x_at) / Fold change /veh IL23R (11737362_x_at) / RFU TMEM51 (11727254_a_at) / Fold change /veh TMEM51 (11727254_a_at) / RFU PIWIL2 (11732686_x_at) / Fold change /veh PIWIL2 (11732686_x_at) / RFU ORM1 (11744905_x_at) / Fold change /veh ORM1 (11744905_x_at) / RFU CCDC152 (11743942_at) / Fold change /veh CCDC152 (11743942_at) / RFU ECM1 (11717891_a_at) / Fold change /veh ECM1 (11717891_a_at) / RFU IL23R (11748794_a_at) / Fold change /veh IL23R (11748794_a_at) / RFU TNFAIP8L3 (11732012_x_at) / Fold change /veh TNFAIP8L3 (11732012_x_at) / RFU MBOAT4 (11741988_at) / Fold change /veh MBOAT4 (11741988_at) / RFU 11764193_at / Fold change /veh 11764193_at / RFU TMEM53 (11763286_at) / Fold change /veh TMEM53 (11763286_at) / RFU MAGEB2 (11727129_at) / Fold change /veh MAGEB2 (11727129_at) / RFU TMEM200A (11744735_a_at) / Fold change /veh TMEM200A (11744735_a_at) / RFU CCDC152 (11751479_a_at) / Fold change /veh CCDC152 (11751479_a_at) / RFU FAM211A (11726209_a_at) / Fold change /veh FAM211A (11726209_a_at) / RFU RGS16 (11746705_a_at) / Fold change /veh RGS16 (11746705_a_at) / RFU VCAN (11755009_s_at) / Fold change /veh VCAN (11755009_s_at) / RFU RHOB (11743442_s_at) / Fold change /veh RHOB (11743442_s_at) / RFU RGS16 (11720943_a_at) / Fold change /veh RGS16 (11720943_a_at) / RFU RGS16 (11720944_at) / Fold change /veh RGS16 (11720944_at) / RFU, VPS4B / Fold change vs veh, VPS4B / RFU, CREB1 / Fold change vs veh, CREB1 / RFU, DNAJC13 / Fold change vs veh, DNAJC13 / RFU, GNAQ / Fold change vs veh, GNAQ / RFU, CDK5R1 / Fold change vs veh, CDK5R1 / RFU, ZRANB3 / Fold change vs veh, ZRANB3 / RFU, CUL4A / Fold change vs veh, CUL4A / RFU, CCNY / Fold change vs veh, CCNY / RFU, UFL1 / Fold change vs veh, UFL1 / RFU, COG3 / Fold change vs veh, COG3 / RFU, DIAPH2 / Fold change vs veh, DIAPH2 / RFU, SKA2 / Fold change vs veh, SKA2 / RFU, AFF3 / Fold change vs veh, AFF3 / RFU, LMF1 / Fold change vs veh, LMF1 / RFU, IPO11 / Fold change vs veh, IPO11 / RFU, DFFB / Fold change vs veh, DFFB / RFU, FOXP1 / Fold change vs veh, FOXP1 / RFU, CARD8 / Fold change vs veh, CARD8 / RFU, STRN3 / Fold change vs veh, STRN3 / RFU, ADK / Fold change vs veh, ADK / RFU, RASSF2 / Fold change vs veh, RASSF2 / RFU, WIPF1 / Fold change vs veh, WIPF1 / RFU, LARP1B / Fold change vs veh, LARP1B / RFU, RASA1 / Fold change vs veh, RASA1 / RFU, RB1 / Fold change vs veh, RB1 / RFU, PPFIA1 / Fold change vs veh, PPFIA1 / RFU, MAT2A / Fold change vs veh, MAT2A / RFU, CCT5 / Fold change vs veh, CCT5 / RFU, WDR92 / Fold change vs veh, WDR92 / RFU, CUX1 / Fold change vs veh, CUX1 / RFU, TTC7A / Fold change vs veh, TTC7A / RFU, TMEM135 / Fold change vs veh, TMEM135 / RFU, DEPTOR / Fold change vs veh, DEPTOR / RFU, CPM / Fold change vs veh, CPM / RFU, DNAJB6 / Fold change vs veh, DNAJB6 / RFU, CACNA2D3 / Fold change vs veh, CACNA2D3 / RFU, DTX4 / Fold change vs veh, DTX4 / RFU, TFCP2 / Fold change vs veh, TFCP2 / RFU, GMCL1 /// GMCL1P1 / Fold change vs veh, GMCL1 /// GMCL1P1 / RFU, AEBP2 / Fold change vs veh, AEBP2 / RFU, SNHG1 /// SNORD22 /// SNORD25 /// SNORD26 /// SNORD27 /// SNORD28 /// SNORD29 /// SNORD31 / Fold change vs veh, SNHG1 /// SNORD22 /// SNORD25 /// SNORD26 /// SNORD27 /// SNORD28 /// SNORD29 /// SNORD31 / Fold change (Aza/veh), C12orf56 (ProbeSet 11735607_a_at) / Fold change (ACY-1035/veh), C12orf56 (ProbeSet 11735607_a_at) / Fold change (Aza/veh), FGFR1OP (ProbeSet 11751329_s_at) / Fold change (ACY-1035/veh), FGFR1OP (ProbeSet 11751329_s_at) / Fold change (Aza/veh), VPS36 (ProbeSet 11739960_a_at) / Fold change (ACY-1035/veh), VPS36 (ProbeSet 11739960_a_at) / RFU SYPL1 (11715823_x_at) / Fold change /veh SYPL1 (11715823_x_at) / RFU IGFBP7 (11715501_s_at) / Fold change /veh IGFBP7 (11715501_s_at) / RFU REEP3 (11722064_at) / Fold change /veh REEP3 (11722064_at) / RFU IGLL1 (11728026_x_at) / Fold change /veh IGLL1 (11728026_x_at): dose or concentration left out as unconfirmed. Particulars: ProbeSet 11728676_at; LIST B.

For `Nc1ccc(-c2cccs2)cc1NC(=O)c1ccc2c(c1)cc(C1CC1)n2CCN1CCOCC1` [ACY-1035], the “RFU, MED14” value came to 202.11 RFU.
